Measured values published in ChEMBL document CHEMBL1136618, “Bis(acridinylthiourea)platinum(II) complexes: synthesis, DNA affinity, and biological activity in glioblastoma cells” (Bioorg Med Chem Lett, 2003).

Test system: Nucleic Acid
Test: Intrinsic binding constant in calf thymus DNA
Format: nucleic-acid assay, Bos taurus

Compound	Kb [M⁻¹]
CNC(=S)N(C)CCNc1c2ccccc2nc2ccccc12	1500000
CNc1c2ccccc2nc2ccccc12	110000
